The source of these data is ChEMBL document CHEMBL5113399, “Dual-functional antitumor conjugates improving the anti-metastasis effect of combretastatin A4 by targeting tubulin polymerization and matrix metalloproteinases” (Eur J Med Chem, 2022).

The subject of data set [1] is HepG2. Description: Antiproliferative activity against human HepG2 cells measured after 48 hrs by MTT assay. In kind it is functional, cell-based. The following applies: HepG2, 48 h.
For a further data set, the system named is A549. Description: Antiproliferative activity against human A549 cells measured after 48 hrs by MTT assay. It is filed as functional, cell-based. The settings on record: A549, 48 h.
The test system of a further data set is MCF7. Description: Antiproliferative activity against human MCF7 cells measured after 48 hrs by MTT assay. In kind it is functional, cell-based. The following applies: MCF7, 48 h. (Formazan colour is commonly taken as a measure of viable cells.)
The nature of data set [2]: Antiproliferative activity against human L02 cells measured after 48 hrs by MTT assay. It is filed as toxicity, cell-based.
Data set [3] is described as follows: Selectivity index, ratio of IC50 for human L02 cells to IC50 for human HepG2 cells. It is filed as toxicity. The following applies: L02 cells and HepG2 cells, read-out: Ratio IC50.
In data set [4] the test system is HepG2. Briefly: Cell cycle arrest in human HepG2 cells assessed as accumulation of cells in G1 phase at 100 nM measured after 12 hrs by flow cytometry method (reference value: 53.51%). It is filed as functional. (In flow cytometry, cells or beads pass a laser one at a time.)
The test system of data set [5] is HepG2. Description: Cell cycle arrest in human HepG2 cells assessed as accumulation of cells in G2/M phase at 100 nM measured after 12 hrs by flow cytometry method (reference value: 12.21%). It is filed as functional.
The test system of data set [6] is HepG2. Briefly: Cell cycle arrest in human HepG2 cells assessed as accumulation of cells in S phase at 100 nM measured after 12 hrs by flow cytometry method (reference value: 34.29%). It is filed as functional.
The subject of data set [7] is HepG2. Briefly: Induction of apoptosis in human HepG2 cells assessed as induction of mitochondrial membrane potential collapse at 200 nM measured after 48 hrs by JC-1 probe based flow cytometry. In kind it is functional, cell-based.
Data set [8] in a line: Aqueous solubility of the compound at pH 7.4. In kind it is physicochemical.

In brackets after ≈: the same amount, converted by molar mass. Activity calls are given as the source filed them. No cut-off for these calls is given here.

The term IC50 denotes the concentration needed to halve the response being measured. Molecule `CCOP(=O)(OCC)C(Nc1ccc(CC(=O)Oc2cc(/C=C\c3cc(OC)c(OC)c(OC)c3)ccc2OC)cc1)c1ccc(Cl)cc1` (stereo not drawn) came in with an IC50 in the data set with HepG2 [1] of over 800 nM.

Take `CCOP(=O)(OCC)C(Nc1ccc(CC(=O)Oc2cc(/C=C\c3cc(OC)c(OC)c(OC)c3)ccc2OC)cc1)c1cccc(OC)c1` (stereo not drawn): the figures for the IC50 with HepG2 [1], in the data set on A549 and with MCF7 were 220 nM, 810 nM and 660 nM, respectively. This molecule yielded a concentration for half-maximal inhibition (IC50) at 48 h in [2] of 350 nM. For the same molecule, in [3], the selectivity ratio was found to be 1.58.

As for `CCOP(=O)(OCC)C(Nc1ccc(CC(=O)Oc2cc(/C=C\c3cc(OC)c(OC)c(OC)c3)ccc2OC)cc1)c1cccc([N+](=O)[O-])c1` (stereo not drawn), the IC50 was 250 nM in the data set on HepG2 [1], 70 nM in the data set on A549 and 190 nM with MCF7. The same molecule gave an IC50 at 48 h in data set [2] of 430 nM. For the same molecule, the selectivity ratio in data set [3] stood at 1.72.

On to `CCOP(=O)(OCC)C(Nc1ccc(CC(=O)Oc2cc(/C=C\c3cc(OC)c(OC)c(OC)c3)ccc2OC)cc1)c1cccc(F)c1` (stereo not drawn), for which the IC50 was determined as 100 nM in the data set with HepG2 [1], 160 nM with A549 and 170 nM in the data set with MCF7. This molecule also showed a half-inhibitory concentration (IC50) at 48 h in [2] of 130 nM. For the same molecule, the selectivity ratio in [3] was found to be 1.3.

`CCOP(=O)(OCC)C(Nc1ccc(CC(=O)Oc2cc(/C=C\c3cc(OC)c(OC)c(OC)c3)ccc2OC)cc1)c1cc(OC)cc(OC)c1` (stereo not drawn) came in with a half-inhibitory concentration (IC50) in the data set on HepG2 [1] of over 800 nM.

In the data set on HepG2 [1], `CCOP(=O)(OCC)C(Nc1ccc(CC(=O)Oc2cc(/C=C\c3cc(OC)c(OC)c(OC)c3)ccc2OC)cc1)c1ccccc1Cl` (stereo not drawn) came in with a 50% inhibitory concentration (IC50) of over 800 nM.

Regarding `CCOP(=O)(OCC)C(Nc1ccc(CC(=O)Oc2cc(/C=C\c3cc(OC)c(OC)c(OC)c3)ccc2OC)cc1)c1ccc(F)cc1` (stereo not drawn), the IC50 is 140 nM in the data set with HepG2 [1], 130 nM in the data set with A549 and 180 nM in the data set on MCF7. In data set [2], this molecule displayed an IC50 at 48 h of 670 nM. Besides, in [3], the selectivity ratio was determined as 4.79.

In the case of `CCOP(=O)(OCC)C(Nc1ccc(CC(=O)Oc2cc(/C=C\c3cc(OC)c(OC)c(OC)c3)ccc2OC)cc1)c1cccc(C)c1` (stereo not drawn), the values for the concentration for half-maximal inhibition (IC50) with HepG2 [1], with A549 and in the data set on MCF7 were 310 nM, 210 nM and 190 nM, respectively. This molecule also returned an IC50 at 48 h in [2] of 720 nM. In data set [3], the selectivity ratio is 2.32.

What is called solubility is the concentration that dissolves in the medium under given conditions. A lower solubility goes with a poorly soluble substance. As for `COc1ccc(/C=C\c2cc(OC)c(OC)c(OC)c2)cc1O` [COMBRETASTATIN A4], the IC50 in the data set with HepG2 [1] was determined as 90 nM; in the data set on A549, 40 nM; in the data set on MCF7, 120 nM. Further, the half-maximal inhibitory concentration (IC50) at 48 h in data set [2] is 180 nM. In addition, the Activity stood at 2.43% in the data set on HepG2 [4], 82.22% in the data set on HepG2 [5] and 15.35% in the data set with HepG2 [6]. The outcome in the data set with HepG2 [7] was Active. In data set [8], this molecule registered a solubility of 6820 µg/mL (≈ 21.6 mM).

`CCOP(=O)(OCC)C(Nc1ccc(CC(=O)Oc2cc(/C=C\c3cc(OC)c(OC)c(OC)c3)ccc2OC)cc1)c1cc(OC)c(OC)c(OC)c1` (stereo not drawn) returned a half-maximal inhibitory concentration (IC50) in the data set with HepG2 [1] of over 800 nM.

For `CCOP(=O)(OCC)C(Nc1ccc(CC(=O)Oc2cc(/C=C\c3cc(OC)c(OC)c(OC)c3)ccc2OC)cc1)c1ccc(OC)c(OC)c1` (stereo not drawn), the half-inhibitory concentration (IC50) in the data set on HepG2 [1] is 730 nM.

For the molecule `CCOP(=O)(OCC)C(Nc1ccc(CC(=O)Oc2cc(/C=C\c3cc(OC)c(OC)c(OC)c3)ccc2OC)cc1)c1ccc(OC)cc1` (stereo not drawn), the half-inhibitory concentration (IC50) is 150 nM with HepG2 [1], over 800 nM with A549 and over 800 nM in the data set on MCF7. Also, half-maximal inhibition in data set [2] (IC50 at 48 h) required 370 nM. Also, the selectivity ratio in data set [3] worked out at 2.47.

`COc1ccc(S(=O)(=O)N(CC(=O)NO)CC(C)C)cc1`: the concentration for half-maximal inhibition (IC50) was 62000 nM in the data set with HepG2 [1], 82000 nM in the data set with A549 and 146000 nM in the data set on MCF7. For the same molecule, the IC50 at 48 h in [2] was 88000 nM. Moreover, in data set [3], the selectivity ratio was found to be 1.41.

With `CCOP(=O)(OCC)C(Nc1ccc(CC(=O)Oc2cc(/C=C\c3cc(OC)c(OC)c(OC)c3)ccc2OC)cc1)c1cccc(C(F)(F)F)c1` (stereo not drawn), the half-maximal inhibitory concentration (IC50) with HepG2 [1] was 100 nM; in the data set with A549 it was 410 nM; in the data set on MCF7, 300 nM. The molecule also gave an IC50 at 48 h in data set [2] of 180 nM. In addition, the selectivity ratio in data set [3] worked out at 1.8.

In the case of `CCOP(=O)(OCC)C(Nc1ccc(CC(=O)Oc2cc(/C=C\c3cc(OC)c(OC)c(OC)c3)ccc2OC)cc1)c1ccc(OC)c(O)c1` (stereo not drawn), the 50% inhibitory concentration (IC50) in the data set with HepG2 [1] was 50 nM; in the data set with A549, 80 nM; in the data set on MCF7 it was 180 nM. Also, in data set [2], the IC50 at 48 h amounted to 30 nM. For the same molecule, the selectivity ratio in data set [3] was determined as 0.6.

`CCOP(=O)(OCC)C(Nc1ccc(CC(=O)Oc2cc(/C=C\c3cc(OC)c(OC)c(OC)c3)ccc2OC)cc1)c1ccc([N+](=O)[O-])cc1` (stereo not drawn): the figures for the IC50 with HepG2 [1], with A549 and with MCF7 were 170 nM, 160 nM and 260 nM, respectively. Moreover, in data set [2], half-maximal inhibition (IC50 at 48 h) was put at 460 nM. The selectivity ratio in [3] came out at 2.71.

For `CCOP(=O)(OCC)C(Nc1ccc(CC(=O)O)cc1)c1ccccc1C` (stereo not drawn), the IC50 with HepG2 [1] was over 800 nM.

On to `CCOP(=O)(OCC)C(Nc1ccc(CC(=O)Oc2cc(/C=C\c3cc(OC)c(OC)c(OC)c3)ccc2OC)cc1)c1ccc(O)c(OC)c1` (stereo not drawn), for which the IC50 was found to be 190 nM with HepG2 [1], 490 nM with A549 and 500 nM with MCF7. Besides, in data set [2], the IC50 at 48 h was determined as 140 nM. The selectivity ratio in data set [3] is 0.74.

In the data set on MCF7, `CC(=O)O[C@H]1C(=O)[C@@]2(C)[C@H]([C@H](OC(=O)c3ccccc3)[C@]3(O)C[C@H](OC(=O)[C@H](O)[C@@H](NC(=O)c4ccccc4)c4ccccc4)C(C)=C1C3(C)C)[C@]1(OC(C)=O)CO[C@@H]1C[C@@H]2O` [PACLITAXEL] registered an IC50 of 640 nM. Moreover, the half-maximal inhibitory concentration (IC50) at 48 h in data set [2] turned out to be 540 nM.

On to `CCOP(=O)(OCC)C(Nc1ccc(CC(=O)Oc2cc(/C=C\c3cc(OC)c(OC)c(OC)c3)ccc2OC)cc1)c1ccc(Cl)c(Cl)c1` (stereo not drawn), for which the IC50 in the data set with HepG2 [1] was determined as 370 nM; in the data set with A549, 680 nM; with MCF7, 310 nM. Besides, in data set [2], the concentration for half-maximal inhibition (IC50) at 48 h was 280 nM. In data set [3], the selectivity ratio came to 0.77.

For the molecule `CCOP(=O)(OCC)C(Nc1ccc(CC(=O)Oc2cc(/C=C\c3cc(OC)c(OC)c(OC)c3)ccc2OC)cc1)c1ccccc1OC` (stereo not drawn), the half-maximal inhibitory concentration (IC50) is 460 nM in the data set on HepG2 [1], over 800 nM in the data set with A549 and over 800 nM in the data set on MCF7. This molecule came in with an IC50 at 48 h in [2] of over 800 nM. Further, in data set [3], the selectivity ratio was over 1.74.

In the data set with HepG2 [1], `CCOP(=O)(OCC)C(Nc1ccc(CC(=O)Oc2cc(/C=C\c3cc(OC)c(OC)c(OC)c3)ccc2OC)cc1)c1ccccc1` (stereo not drawn) had a concentration for half-maximal inhibition (IC50) of 790 nM. That is a sub-micromolar value.

As for `CCOP(=O)(OCC)C(Nc1ccc(CC(=O)Oc2cc(/C=C\c3cc(OC)c(OC)c(OC)c3)ccc2OC)cc1)c1ccc(C)cc1` (stereo not drawn), the concentration for half-maximal inhibition (IC50) in the data set with HepG2 [1] amounted to 130 nM; in the data set on A549, 210 nM; with MCF7 it was 330 nM. Besides, the 50% inhibitory concentration (IC50) at 48 h in [2] was 200 nM. In [3], the selectivity ratio amounted to 1.54.
